From patent US11833232B2, “Deodorant compositions with natural wax” (The Procter & Gamble Company, priority 2020, dated 2023)
Counter-ions that a name gives are not always drawn.

Experiments:
[1] = test system: two key underarm bacteria strains; assay: Raw material microbial inhibition, verdict in words over both strains; assay type: cell-based, Corynebacterium mucofaciens; Staphylococcus epidermidis
Method: The Tier 1 Anaerobic MIC Assay test method to generate the data of Table 2 is described below.
(§1) Tier 1 Anaerobic MIC Assay
The data in Table 2 above was generated with the following test method.
3. Microbial Strains • Staphylococcus epidermidis (clinical isolate) • Corynebacterium mucofaciens (clinical isolate)
4. Test Procedure • Inoculum Preparation • Prior to testing streak organisms for isolation on BHI with 1% Tween 80 plates, wrap with parafilm and place in 37° C. incubator. When isolated colonies appear remove one representative colony from each plate and place each in 5 ml of BHI with 1% Tween 80 media. Incubate at 37° C. with shaking overnight. Inoculate 20 ml BHI with 1% Tween 80 (per 96 deep well plate to be tested) with 20 ul of the overnight culture (1-1000 dilution). • Master Plate Preparation • Compounds/formulations to be tested are diluted across a 96 deep well plate as shown below in Table 3 (for a 1% stock solution). […] 800 ul each 1% stock solution+positive control are added to wells C1 through H1. […] 400 ul is then removed from #1 well added to the #2 well and mixed. This is then continued across the plate resulting in a 50% dilution between wells across the plate (this can be easily accomplished with an automatic 8 channel Matrix pipette set to withdraw, dispense and mix).
In row A of a 96 deep well plate pipette 180 ul of sterile BHI with 1% Tween 80 as a negative growth control. All other wells receive 180 ul of inoculum. From the master plate introduce 20 ul to the corresponding row in the test plate using an 8-channel pipette. Loaded plates are placed on a plate shaker in the 37° C. incubator and incubated overnight. The next day read the O.D. 600 on a plate reader. The MIC is the last well from the right that has no bacterial growth.

C. mucofaciens = assay: Tier 1 Anaerobic MIC Assay; assay type: cell-based, Corynebacterium mucofaciens (clinical isolate); conditions: raw material, 37° C. overnight, O.D. 600
Text: as §1
(§2) The data in Table 2 above was generated with the following test method. The purpose of this assay is to determine if a compound or formulation has an antimicrobial effect in vitro.
(§3) It is understood that when not specifically noted in this procedure: • a) All materials, reagents and equipment required for this procedure are of appropriate design and condition of cleanliness and/or sterility as determined by their intended use. • b) The operator has been trained in aseptic technique and has been qualified to perform the procedure and accurately interpret the results. • c) All media required for this procedure was manufactured by a reputable commercial source egg. Difco, Merck etc. and has been stored and prepared as per manufacturer's instructions. • d) All routine laboratory controls, including but not limited to, media function and growth promotion tests, verification of sterility and use of positive and negative controls are being conducted.
(§4) Procedure: (All procedures performed in anaerobic chamber except where noted)
1. […]
(§5) In row A of a 96 deep well plate pipette 180 ul of sterile BHI with 1% Tween 80 as a negative growth control. […] The next day read the O.D. 600 on a plate reader. […]

S. epidermidis = assay: Tier 1 Anaerobic MIC Assay; assay type: cell-based, Staphylococcus epidermidis (clinical isolate); conditions: raw material, 37° C. overnight, O.D. 600
Text: as §1, §2, §3, §4
1. […]
as §5

Row | SMILES | performance against the bacteria as raw materials (in words) [1] | microbial inhibition concentration (MIC) (C. mucofaciens) | microbial inhibition concentration (MIC) (S. epidermidis)
1 | CC(C)=CCCC(C)=CC=O [Citral 96% ETOH, Citral] | performing well | – | –
2 | Cc1cc(CC(C)CC(C)(C)C)n(O)c(=O)c1.NCCO (stereo not drawn) [100 mg/ml piroctone olamine in H2O, piroctone olamine] | perform particularly well | < 5 ppm | 10 ppm
3 | C=CCCCCCCCCC(=O)N[C@@H](Cc1ccccc1)C(=O)O [Sepiwhite 40 mg/ml H2O ins] | performing well | – | –
4 | N=C(N)c1ccc(OCCCCCCOc2ccc(C(=N)N)cc2)cc1 [Hexamidine 36 mg/ml H2O, Hexamidine] | perform particularly well | <2 ppm | 7 ppm
5 | C=CCc1ccc(O)c(OC)c1 [Eugenol 99% ETOH, Eugenol] | performing well | – | –
6 | COC(=O)CCC(=O)OC [Dimethyl Succinate 98% ETOH, Dimethyl Succinate] | performing well | – | –
7 | CCOC(=O)CC(O)(CC(=O)OCC)C(=O)OCC [100% Triethyl citrate, Triethyl citrate] | performing well | – | –
8 | O=C([O-])[O-].[Ca+2] [Ca Carbonate 50 mg/ml H2O ins, calcium carbonate] | performing moderately well | – | –
